Numbers after ± are expanded uncertainties.
Experiments:
[1] = for surface tension liquid-gas: Maximal bubble pressure; for mass density: 298.15 K, 101.33 kPa, Vibrating tube method; for mass density / vapor or sublimation pressure: Liquid; for vapor or sublimation pressure: Ebulliometric method (Recirculating still)
[2] = Boiling temperature at pressure P; details: 101.33 kPa; Liquid; Ebulliometric method (Recirculating still)
[3] = refractive index (Na D-line) (dimensionless); details: 298.15 K; 101.33 kPa; Liquid; Standard Abbe refractometry
[4] = xn = mol fraction of the nth substance listed; details: Maximal bubble pressure

Cc1ccc(C)o1 [2,5-dimethylfuran]
surface tension liquid-gas ([1]; 283.15 K): 26.34 ± 0.2 mN/m | mass density [1]: 895.63 ± 0.08 kg/m3 | surface tension liquid-gas ([1]; 303.15 K): 24.05 ± 0.19 mN/m | surface tension liquid-gas ([1]; 330.15 K): 20.58 ± 0.17 mN/m | vapor or sublimation pressure ([1]; 345.24 K): 50 ± 0.3 kPa | vapor or sublimation pressure ([1]; 357.21 K): 75 ± 0.6 kPa | vapor or sublimation pressure ([1]; 364.37 K): 94 ± 0.7 kPa | Boiling temperature at pressure P [2]: 93.68 ± 0.02 °C | refractive index [3]: 1.44012 ± 0.00035

Cc1ccc(C)o1 [2,5-dimethylfuran] + CC(C)OC(C)C
surface tension liquid-gas ([4]; 283.15 K, x2 = 0): 26.34 ± 0.2 mN/m | surface tension liquid-gas ([4]; 283.15 K, x2 = 0.067): 24.79 ± 0.2 mN/m | surface tension liquid-gas ([4]; 283.15 K, x2 = 0.112): 24.27 ± 0.19 mN/m | surface tension liquid-gas ([4]; 283.15 K, x2 = 0.234): 23.31 ± 0.19 mN/m | surface tension liquid-gas ([4]; 283.15 K, x2 = 0.323): 22.56 ± 0.18 mN/m | surface tension liquid-gas ([4]; 283.15 K, x2 = 0.42): 21.87 ± 0.18 mN/m | surface tension liquid-gas ([4]; 283.15 K, x2 = 0.52): 21.31 ± 0.18 mN/m | surface tension liquid-gas ([4]; 283.15 K, x2 = 0.626): 20.86 ± 0.18 mN/m | surface tension liquid-gas ([4]; 330.15 K, x2 = 0): 20.58 ± 0.17 mN/m | surface tension liquid-gas ([4]; 330.15 K, x2 = 0.153): 19.28 ± 0.17 mN/m | surface tension liquid-gas ([4]; 330.15 K, x2 = 0.192): 18.93 ± 0.17 mN/m | surface tension liquid-gas ([4]; 330.15 K, x2 = 0.245): 18.31 ± 0.16 mN/m | surface tension liquid-gas ([4]; 330.15 K, x2 = 0.342): 17.66 ± 0.16 mN/m | surface tension liquid-gas ([4]; 330.15 K, x2 = 0.434): 17.01 ± 0.16 mN/m | surface tension liquid-gas ([4]; 330.15 K, x2 = 0.543): 16.48 ± 0.15 mN/m | surface tension liquid-gas ([4]; 330.15 K, x2 = 0.664): 15.79 ± 0.15 mN/m | surface tension liquid-gas ([4]; 330.15 K, x2 = 0.782): 15.16 ± 0.15 mN/m | surface tension liquid-gas ([4]; 330.15 K, x2 = 0.897): 14.65 ± 0.15 mN/m

CC(C)OC(C)C [diisopropyl ether]
surface tension liquid-gas ([1]; 283.15 K): 18.88 ± 0.17 mN/m | mass density [1]: 718.75 ± 0.14 kg/m3 | surface tension liquid-gas ([1]; 303.15 K): 16.7 ± 0.16 mN/m | vapor or sublimation pressure ([1]; 307.64 K): 30.01 ± 0.08 kPa | vapor or sublimation pressure ([1]; 311.53 K): 35.01 ± 0.08 kPa | vapor or sublimation pressure ([1]; 314.98 K): 40.01 ± 0.09 kPa | vapor or sublimation pressure ([1]; 318.08 K): 45.01 ± 0.09 kPa | vapor or sublimation pressure ([1]; 320.94 K): 50.01 ± 0.1 kPa | vapor or sublimation pressure ([1]; 321.03 K): 50 ± 0.3 kPa | vapor or sublimation pressure ([1]; 323.56 K): 55.01 ± 0.1 kPa | vapor or sublimation pressure ([1]; 326 K): 60.01 ± 0.1 kPa | vapor or sublimation pressure ([1]; 328.29 K): 65.01 ± 0.11 kPa | surface tension liquid-gas ([1]; 330.15 K): 13.88 ± 0.14 mN/m | vapor or sublimation pressure ([1]; 330.45 K): 70.01 ± 0.11 kPa | vapor or sublimation pressure ([1]; 332.48 K): 75.01 ± 0.12 kPa | vapor or sublimation pressure ([1]; 332.65 K): 75 ± 0.5 kPa | vapor or sublimation pressure ([1]; 334.41 K): 80.01 ± 0.12 kPa | vapor or sublimation pressure ([1]; 336.23 K): 85.01 ± 0.13 kPa | vapor or sublimation pressure ([1]; 339.57 K): 94 ± 0.7 kPa | vapor or sublimation pressure ([1]; 339.65 K): 95.01 ± 0.14 kPa | vapor or sublimation pressure ([1]; 341.52 K): 100.89 ± 0.14 kPa | Boiling temperature at pressure P [2]: 68.52 ± 0.02 °C | refractive index [3]: 1.36652 ± 0.00035

CC(C)OC(C)C [diisopropyl ether] + Cc1ccc(C)o1
surface tension liquid-gas ([4]; 283.15 K, x1 = 1): 18.88 ± 0.17 mN/m | surface tension liquid-gas ([4]; 330.15 K, x1 = 1): 13.88 ± 0.14 mN/m

Source: the NIST ThermoML archive (doi:10.1016/j.fluid.2013.02.005)
